These are literature values, as cited in US20220023238A1, “Process of Manufacturing a Stable, Ready to Use Infusion Bag for an Oxidation Sensitive Formulation” (InnoPharma, Inc., priority 2016, published 2022).

Each structure is given as a SMILES string.

For data set [1] the following is noted: six adult volunteers, intravenous vs oral.
The conditions of data set [2]: intravenous, therapeutic dosing up to 4,000 mg daily.

In the case of `CC(=O)Nc1ccc(O)cc1` [acetaminophen, N-(4-hydroxy-phenyl)acetamide], in data set [1], the “mean intravenous Cmax compared to oral route” value is recorded as “two”. Also, in data set [2], the hepatotoxicity result is given as “rarely associated with hepatotoxicity”.
